Our source for the IC50 values is patent publication US11679108B2, “Aromatic heterocyclic compound, and pharmaceutical composition and use thereof” (GUANGZHOU HENOVCOM BIOSCIENCE CO., LTD., priority 2018, dated 2023).

One assay deals with T1, ATX in human plasma (Homo sapiens, UniProt Q13822).
T1 construct: blank plasma was derived from at least 6 individual people; from tissue; host or cells: human plasma (pooled from at least 6 individuals)
As to the kind of experiment: Analysis in vitro: detection of LPA in human plasma for screening activity (LPA 18:2 by LC/MS/MS). The assay is classed as biochemical. The conditions noted are these: incubated 2 hours at 37° C., LPA 18:2 detected by LC/MS/MS. From the text:
Analysis In Vitro: Detection of LPA in Human Plasma for Screening Activity
Principle: LPC in plasma being used as a substrate, the produced LPA 18:2 (LPA 17:0 as an internal standard) is detected by LC/MS/MS quantitative analysis. At different concentrations of the compounds to be tested, the percentage of residual activity is obtained by the ratio of the production of LPA18:2 to that in the absence of the compounds to be tested, thereby calculating IC50 values.
Experiment procedures: blank plasma was derived from at least 6 individual people. The compounds to be tested were diluted from stock solution in 3-fold dilution gradient, to produce 8 concentrations of working solution (with zero) in series. 10 μL of the melting blank plasma samples were taken and iced methanol solution containing internal standard (LPA 17:0) was added to it, so that the mixture directedly performed protein precipitation, which served as a system control sample. 2 μL of the working solution in different concentration was taken and 198 μL of blank human plasma was added, which was incubated with a concentration of 0 to 10 μM. The samples were placed at an incubater containing 5% CO2 at 37° C., and incubated for 2 hours. When the incubation was completed, 10 μL of plasma sample was taken and appropriate volume of iced methanol solution containing internal standard (LPA 17:0) was added into it, so that the mixture directedly performed protein precipitation. The precipitation was centrifuged to take supernatant. LPA 18:2 was detected by LC/MS/MS and IC50 values were analyzed and calculated by software, seeing Table 2.

For the next assay, the target named is ATX (Homo sapiens, UniProt Q13822). As to the kind of experiment: Analysis in vitro: LPC was used as substrate for screening enzyme activity (Amplex Red fluorescence). The assay is classed as biochemical. The conditions noted are these: inhibitory activity against ATX, with LPC as substrate. The source says:
Analysis In Vitro: LPC was Used as Substrate for Screening Enzyme Activity
Principle: Lysophosphatidylcholine (LPC) as substrate is hydrolyzed by using the activity of lysoPLD enzyme, to produce lysophosphatidic acid (LPA) and choline, which is oxidized to produce H2O2 under the action of choline oxidase. In presence of horse radish peroxidase (HPR), Amplex Red reagent is reacted with H2O2 in a quantitative chemistry ratio of 1 to 1, to produce strong fluorescence products, which are detected by a fluorescent quantitative test.
Experimental procedures: the compounds to be tested were dissolved in DMSO, to prepare 10 mM of stock solution, which was diluted in a gradient concentration of 3 times with DMSO from 10 mM, to generate 10 concentration gradients. The reaction buffer solution was used for preparing a mixed solution 1 of 2 ng/μl ATX, 2 U/ml HRP and 0.2 U/ml choline oxidase in a final concentration. 20 μl of the above mixed solution 1 was added to each hole of an experiment board, […]. The compounds diluted with DMSO were transferred into an experiment board with Echo550. The reaction buffer solution was used for preparing a mixed solution 2 of […] LPC and 400 μM Amplex Red in a final concentration. 20 μl of the above mixed solution 2 was added to each hole of the experiment board. After addition, the experiment board was shook for 30 seconds on a shaker, and incubated for 30 minutes. Envision was used to read the fluorescence signals with an exciting light at 530 nm and emitted light at 590 nm. Inhibition ratio of the compounds to enzyme reaction was calculated according to the ratio of fluorescence, and IC50 of the compounds was analyzed and calculated by software, seeing Table 1.

pIC50: −log10 of the molar value.

In general, pIC50 refers to −log10 of the IC50, conventionally taken in molar units. Low values mean a high IC50, high ones a low IC50. In the case of `CCc1nc2sc(C3CCN(CC(=O)N4CC(O)C4)CC3)nn2c1N(C)c1nc(-c2ccc(F)cc2)c(C#N)s1` [Example 17, 2-{[6-ethyl-2-(1-(2-(3-hydroxyazetidin-1-yl)-2oxoethyl)piperidin-4-yl)imidazo[2,1-b][1,3,4]thiadiazol-5-yl](methyl)amino}-4-(4-fluorophenyl)thiazole-5-carbonitrile], the pIC50 against ATX in human plasma is 7.00 to 11.00; at ATX it was 6.30 to 7.00. For `CCc1nc2sc(N3CCN(CC(=O)N4CC(O)C4)CC3)nn2c1N(C)c1nc(-c2ccc(F)cc2)c(C#N)s1` [Example 2, 2-{[6-ethyl-2-(4-(2-(3-hydroxyazetidin-1-yl)-2-oxoethyl)piperazin-1-yl)imidazo[2,1-b][1,3,4]thiadiazol-5-yl](methyl)amino}-4-(4-fluorophenyl)thiazole-5-carbonitrile] the same measures were 6.30 to 7.00 and 6.30 to 7.00. Consider `CCc1nc2sc(N3CC[C@H](N(C)C(=O)N4CC(O)C4)C3)nn2c1N(C)c1nc(-c2ccc(F)cc2)c(C#N)s1` [Example 37, (S)—N-{1-[5-((5-cyano-4-(4-fluorophenyl)thiazol-2-yl)(methyl)amino)-6-ethylimidazo[2,1-b][1,3,4]thiadiazol-2-yl]pyrrolidin-3-yl}-3-hydroxy-N-methylazetidine-1-carboxamide], for which the pIC50 is 6.30 to 7.00 on ATX in human plasma and 7.00 to 11.00 against ATX. For `CCc1nc2sc(N3CCC[C@H](N(C)CC(=O)N4CC(O)C4)C3)nn2c1N(C)c1nc(-c2ccc(F)cc2)c(C#N)s1` [Example 24, (S)-2-{[6-ethyl-2-(3-((2-(3-hydroxyazetidin-1-yl)-2-oxoethyl)(methyl)amino)piperidin-1-yl)imidazo[2,1-b][1,3,4]thiadiazol-5-yl](methyl)amino}-4-(4-fluorophenyl)thiazole-5-carbonitrile] the same measures were 7.00 to 11.00 and 7.00 to 11.00. The matching figures for `CCc1nc2sc(N3CCC4(CC3)CN(C(N)=O)C4)nn2c1N(C)c1nc(-c2ccc(F)cc2)c(C#N)s1` [Example 8]: 6.30 to 7.00 and 6.30 to 7.00. For the compound `CCc1nc2sc(N3CCCC(N(C)CC(=O)N4CC(O)C4)C3)nn2c1N(C)c1nc(-c2ccc(F)cc2)c(C#N)s1` (centres unmarked) [Example 14], the pIC50 on ATX in human plasma and against ATX was 7.00 to 11.00 each time.

Turning to `CCc1nc2sc(N3CC[C@H](N(C)CC(=O)N4CC(F)C4)C3)nn2c1N(C)c1nc(-c2ccc(F)cc2)c(C#N)s1` [Example 38, (S)-2-{[6-ethyl-2-(3-((2-(3-fluoroazetidin-1-yl)-2-oxoethyl)(methyl)amino)pyrrolidin-1-yl)imidazo[2,1-b][1,3,4]thiadiazol-5-yl](methyl)amino}-4-(4-fluorophenyl)thiazole-5-carbonitrile], the results for the pIC50 against ATX in human plasma and on ATX were 6.30 to 7.00 and 7.00 to 11.00, respectively.

Take `CCc1nc2sc(N3CCC(N(C)C(N)=O)C3)nn2c1N(C)c1nc(-c2ccc(F)cc2)c(C#N)s1` (centres unmarked) [Example 12, 1-{1-[5-((5-cyano-4-(4-fluorophenyl)thiazol-2-yl)(methyl)amino)-6-ethylimidazo[2,1-b][1,3,4]thiadiazol-2-yl]pyrrolidin-3-yl}-1-methylurea]: the pIC50 on ATX in human plasma and on ATX was 7.00 to 11.00 in each case. As to `CCc1nc2sc(N3CC[C@H](N(C)C(N)=O)C3)nn2c1N(C)c1nc(-c2ccc(F)cc2)c(C#N)s1` [Example 20, (S)-1-{1-[5-((5-cyano-4-(4-fluorophenyl)thiazol-2-yl)(methyl)amino)-6-ethylimidazo[2,1-b][1,3,4]thiadiazol-2-yl]pyrrolidin-3-yl}-1-methylurea], the pIC50 on ATX in human plasma and against ATX was 7.00 to 11.00 in each case. Regarding `CCc1nc2sc(N3CC[C@H](N(C)CC(=O)N4CCOCC4)C3)nn2c1N(C)c1nc(-c2ccc(F)cc2)c(C#N)s1` [Example 41, (S)-2-{[6-ethyl-2-(3-(methyl(2-morpholino-2-oxoethyl)amino)pyrrolidin-1-yl)imidazo[2,1-b][1,3,4]thiadiazol-5-yl](methyl)amino}-4-(4-fluorophenyl)thiazole-5-carbonitrile], the pIC50 at ATX in human plasma was 6.30 to 7.00; against ATX, 7.00 to 11.00.

`CCc1nc2sc(N3CC[C@@H](N(C)C(N)=O)C3)nn2c1N(C)c1nc(-c2ccc(F)cc2)c(C#N)s1` [Example 19, (R)-1-{1-[5-((5-cyano-4-(4-fluorophenyl)thiazol-2-yl)(methyl)amino)-6-ethylimidazo[2,1-b][1,3,4]thiadiazol-2-yl]pyrrolidin-3-yl}-1-methylurea]: the pIC50 was 6.30 to 7.00 against ATX in human plasma and 7.00 to 11.00 on ATX.

In the case of `CCc1nc2sc(N3CCC4(CC3)CN(CC(=O)N3CC(O)C3)C4)nn2c1N(C)c1nc(-c2ccc(F)cc2)c(C#N)s1` [Example 4], the pIC50 is 7.00 to 11.00 on ATX in human plasma and 6.30 to 7.00 against ATX. `CCc1nc2sc(N3CCN(CC(=O)N4CC(O)C4)[C@@H](C)C3)nn2c1N(C)c1nc(-c2ccc(F)cc2)c(C#N)s1` [Example 68, (S)-2-{[6-ethyl-2-(4-(2-(3-hydroxyazetidin-1-yl)-2-oxoethyl)-3-methylpiperazin-1-yl)imidazo[2,1-b][1,3,4]thiadiazol-5-yl](methyl)amino}-4-(4-fluorophenyl)thiazole-5-carbonitrile]: the pIC50 at ATX in human plasma was 7.00 to 11.00. Turning to `CCc1nc2sc(N3CCC4(CN(CC(=O)N5CC(O)C5)C4)C3)nn2c1N(C)c1nc(-c2ccc(F)cc2)c(C#N)s1` [Example 54, 2-{[6-ethyl-2-(2-(2-(3-hydroxyazetidin-1-yl)-2-oxoethyl)-2,6-diazaspiro[3.4]octane-6-yl)imidazo[2,1-b][1,3,4]thiadiazol-5-yl](methyl)amino}-4-(4-fluorophenyl)thiazole-5-carbonitrile], at ATX in human plasma, the pIC50 was 6.30 to 7.00. The same measure, in the same setting: the figure for `CCOC(=O)CN(C)C1CCN(c2nn3c(N(C)c4nc(-c5ccc(F)cc5)c(C#N)s4)c(CC)nc3s2)C1` (centres unmarked) [Example 48] is 6.30 to 7.00; for `CCc1nc2sc(N3CCN(CC(=O)N4CC(O)C4)C(C)C3C)nn2c1N(C)c1nc(-c2ccc(F)cc2)c(C#N)s1` (centres unmarked) [Example 77, 2-{[6-ethyl-2-(4-(2-(3-hydroxyazetidin-1-yl)-2-oxoethyl)-2,3-dimethylpiperazin-1-yl)imidazo[2,1-b][1,3,4]thiadiazol-5-yl](methyl)amino}-4-(4-fluorophenyl)thiazole-5-carbonitrile] it is 7.00 to 11.00. The same measure, in the same setting: under `CCc1nc2sc(N3CC4CN(CC(=O)N5CC(O)C5)CC4C3)nn2c1N(C)c1nc(-c2ccc(F)cc2)c(C#N)s1` (centres unmarked) [Example 56, 2-{[6-ethyl-2-(5-(2-(3-hydroxyazetidin-1-yl)-2-oxoethyl)hexahydropyrrolo[3,4-c]pyrrol-2(1H)-yl)imidazo[2,1-b][1,3,4]thiadiazol-5-yl](methyl)amino}-4-(4-fluorophenyl)thiazole-5-carbonitrile] stands 7.00 to 11.00.

`CCc1nc2sc(N3CC[C@@H](N(C)C(C)C(=O)N4CC(O)C4)C3)nn2c1N(C)c1nc(-c2ccc(F)cc2)c(C#N)s1` (stereo partly drawn) [Example 78, 2-{[6-ethyl-2-((3R)-3-((1-(3-hydroxyazetidin-1-yl)-1-oxopropan-2-yl)(methyl)amino)pyrrolidin-1-yl)imidazo[2,1-b][1,3,4]thiadiazol-5-yl](methyl)amino}-4-(4-fluorophenyl)thiazol-5-carbonitrile]: the pIC50 against ATX in human plasma was 7.00 to 11.00. With `CCc1nc2sc(N3CC4(CCN(CC(=O)N5CC(C#N)C5)C4)C3)nn2c1N(C)c1nc(-c2ccc(F)cc2)c(C#N)s1` [Example 53, 2-{[6-ethyl-2-(6-(2-(3-cyanoazetidin-1-yl)-2-oxoethyl)-2,6-diazaspiro[3.4]octane-2-yl)imidazo[2,1-b][1,3,4]thiadiazol-5-yl](methyl)amino}-4-(4-fluorophenyl)thiazole-5-carbonitrile], on ATX in human plasma, the pIC50 is 7.00 to 11.00.

In turn, `CCc1nc2sc(N3CCN(C(N)=O)CC3)nn2c1N(C)c1nc(-c2ccc(F)cc2)c(C#N)s1` [Example 7, 4-{5-[(5-cyano-4-(4-fluorophenyl)thiazol-2-yl)(methyl)amino]-6-ethylimidazo[2,1-b][1,3,4]thiadiazol-2-yl}piperazine-1-carboxamide] showed a pIC50 against ATX in human plasma of 6.00 to 6.30.
